Test results taken from the NIST ThermoML archive (doi:10.1016/j.jct.2016.09.030).

Tests used:
[1] = refractive index (Na D-line) (dimensionless); xn = mol fraction of the nth substance listed; conditions: 100 kPa, Liquid, Standard Abbe refractometry, x2 = 0
[2] = xn = mol fraction of the nth substance listed; conditions: 100 kPa, Liquid, x2 = 0; for viscosity: Concentric cylinders viscometry; for mass density: Vibrating tube method
[3] = 100 kPa, Liquid; for viscosity: Concentric cylinders viscometry; for mass density: Vibrating tube method
[4] = refractive index (Na D-line) (dimensionless); conditions: 100 kPa, Liquid, Standard Abbe refractometry

CC(C)CCO [3-methylbutan-1-ol] + CCOC(=O)CCC(=O)OCC
Conditions | mass density, [2] [kg/m3] | refractive index, [1] | viscosity, [2] [mPa·s]
288.15 K | 812.29 | 1.4087 | 5.057
293.15 K | 808.58 | 1.4067 | 4.287
298.15 K | 804.84 | 1.4047 | 3.671
303.15 K | 801.09 | 1.4026 | 3.155
308.15 K | 797.31 | 1.4005 | 2.73
313.15 K | 793.51 | 1.3985 | 2.375
318.15 K | 789.67 | 1.3964 | 2.076
323.15 K | 785.79 | 1.3943 | 1.841

CCCCCCCC(=O)OCC [ethyl octanoate]
Conditions | mass density, [3] [kg/m3] | refractive index, [4] | viscosity, [3] [mPa·s]
288.15 K | 870.88 | 1.4199 | 1.686
293.15 K | 866.58 | 1.4177 | 1.537
298.15 K | 862.28 | 1.4155 | 1.41
303.15 K | 857.98 | 1.4132 | 1.298
308.15 K | 853.68 | 1.411 | 1.2
313.15 K | 849.37 | 1.4088 | 1.118
318.15 K | 845.06 | 1.4066 | 1.035
323.15 K | 840.74 | 1.4044 | 0.9708

CC(C)CO [2-methyl-1-propanol] + CCOC(=O)CCC(=O)OCC
Conditions | mass density, [2] [kg/m3] | refractive index, [1] | viscosity, [2] [mPa·s]
288.15 K | 805.88 | 1.3978 | 4.829
293.15 K | 802.03 | 1.3958 | 4.052
298.15 K | 798.16 | 1.3937 | 3.431
303.15 K | 794.25 | 1.3916 | 2.923
308.15 K | 790.31 | 1.3895 | 2.505
313.15 K | 786.31 | 1.3874 | 2.161
318.15 K | 782.26 | 1.3853 | 1.875
323.15 K | 778.14 | 1.383 | 1.652

CC(C)CO [2-methyl-1-propanol] + CCCCCCCC(=O)OCC
Conditions | mass density, [2] [kg/m3] | refractive index, [1] | viscosity, [2] [mPa·s]
288.15 K | 805.88 | 1.3978 | 4.829
293.15 K | 802.03 | 1.3958 | 4.052
298.15 K | 798.16 | 1.3937 | 3.431
303.15 K | 794.25 | 1.3916 | 2.923
308.15 K | 790.31 | 1.3895 | 2.505
313.15 K | 786.31 | 1.3874 | 2.161
318.15 K | 782.26 | 1.3853 | 1.875
323.15 K | 778.14 | 1.383 | 1.652

CC(C)CCO [3-methylbutan-1-ol] + CCCCCCCC(=O)OCC
Conditions | mass density, [2] [kg/m3] | refractive index, [1] | viscosity, [2] [mPa·s]
288.15 K | 812.29 | 1.4087 | 5.057
293.15 K | 808.58 | 1.4067 | 4.287
298.15 K | 804.84 | 1.4047 | 3.671
303.15 K | 801.09 | 1.4026 | 3.155
308.15 K | 797.31 | 1.4005 | 2.73
313.15 K | 793.51 | 1.3985 | 2.375
318.15 K | 789.67 | 1.3964 | 2.076
323.15 K | 785.79 | 1.3943 | 1.841
